According to ChEMBL document CHEMBL3763020, “Tetramethylpyrazine improves the recovery of spinal cord injury via Akt/Nrf2/HO-1 pathway” (2016):
Activity calls are given as the source filed them. The rule behind the calls is not given here.

How the values were obtained:
Rattus norvegicus [1] = experiment: Neuroprotective activity in Sprague-Dawley rat model of spinal cord injury assessed as increase in superoxide dismutase activity at 200 mg/kg, ip; type: functional, organism-based
Rattus norvegicus [2] = experiment: Neuroprotective activity in Sprague-Dawley rat model of spinal cord injury assessed as decrease in activated caspase-3 level at 200 mg/kg, ip in presence of Akt inhibitor LY294002; type: functional, organism-based
Rattus norvegicus [3] = experiment: Neuroprotective activity in Sprague-Dawley rat model of spinal cord injury assessed as decrease in IL1-beta levels in spinal cord tissue at 200 mg/kg, ip by ELISA; type: functional, organism-based
Rattus norvegicus [4] = experiment: Neuroprotective activity in Sprague-Dawley rat model of spinal cord injury assessed as decrease in Evans blue leakage in spinal cord tissue at 200 mg/kg, ip after 48 hrs in presence of 25 umol/kg of HO-1 inhibitor ZnPP; type: functional, organism-based
Rattus norvegicus [5] = experiment: Neuroprotective activity in Sprague-Dawley rat model of spinal cord injury assessed as increase in glutathione level at 200 mg/kg, ip by reduced glutathione assay; type: functional, organism-based
Rattus norvegicus [6] = experiment: Neuroprotective activity in Sprague-Dawley rat model of spinal cord injury assessed as increase in Akt phosphorylation at 200 mg/kg, ip by Western blot analysis; type: functional, organism-based
Rattus norvegicus [7] = experiment: Neuroprotective activity in Sprague-Dawley rat model of spinal cord injury assessed as accumulation at G0/G1 phase at 200 mg/kg, ip by TUNEL staining-based flow cytometric analysis in presence of Akt inhibitor LY294002 (reference value: 34.1 %); type: functional
Rattus norvegicus [8] = experiment: Neuroprotective activity in Sprague-Dawley rat model of spinal cord injury assessed as decrease in TNF-alpha levels in spinal cord tissue at 200 mg/kg, ip by ELISA in presence of Akt inhibitor LY294002; type: functional, organism-based
Rattus norvegicus [9] = experiment: Neuroprotective activity in Sprague-Dawley rat model of spinal cord injury assessed as increase in Nrf2 mRNA expression at 200 mg/kg, ip by real time PCR method in presence of Akt inhibitor LY294002; type: functional, organism-based
Rattus norvegicus [10] = experiment: Neuroprotective activity in Sprague-Dawley rat model of spinal cord injury assessed as increase in HO-1 mRNA expression at 200 mg/kg, ip by real time PCR method in presence of 25 umol/kg of HO-1 inhibitor ZnPP; type: functional, organism-based
Rattus norvegicus [11] = experiment: Induction of Nrf2 binding to HO-1 promoter in Sprague-Dawley rat model of spinal cord injury at 200 mg/kg, ip by chromatin immunoprecipitation assay in presence of 25 umol/kg of HO-1 inhibitor ZnPP; type: functional, organism-based
Rattus norvegicus [12] = experiment: Neuroprotective activity in Sprague-Dawley rat model of spinal cord injury assessed as decrease in Evans blue leakage in spinal cord tissue at 200 mg/kg, ip after 24 hrs in presence of 25 umol/kg of HO-1 inhibitor ZnPP; type: functional, organism-based
Rattus norvegicus [13] = experiment: Neuroprotective activity in Sprague-Dawley rat model of spinal cord injury assessed as increase in HO-1 mRNA expression at 200 mg/kg, ip by real time PCR method; type: functional, organism-based
Rattus norvegicus [14] = experiment: Neuroprotective activity in Sprague-Dawley rat model of spinal cord injury assessed as locomotor function recovery at 200 mg/kg, ip measured during 3 to 28 days in presence of Akt inhibitor LY294002; type: functional, organism-based
Rattus norvegicus [15] = experiment: Neuroprotective activity in Sprague-Dawley rat model of spinal cord injury assessed as increase in HO-1 mRNA expression at 200 mg/kg, ip by real time PCR method in presence of Akt inhibitor LY294002; type: functional, organism-based
Rattus norvegicus [16] = experiment: Neuroprotective activity in Sprague-Dawley rat model of spinal cord injury assessed as decrease in activated caspase-9 level at 200 mg/kg, ip in presence of Akt inhibitor LY294002; type: functional, organism-based
Rattus norvegicus [17] = experiment: Neuroprotective activity in Sprague-Dawley rat model of spinal cord injury assessed as decrease in IL-18 levels in spinal cord tissue at 200 mg/kg, ip by ELISA; type: functional, organism-based
Rattus norvegicus [18] = experiment: Neuroprotective activity in Sprague-Dawley rat model of spinal cord injury assessed as decrease in activated caspase-3 level at 200 mg/kg, ip; type: functional, organism-based
Rattus norvegicus [19] = experiment: Neuroprotective activity in Sprague-Dawley rat model of spinal cord injury assessed as decrease in thiobarbituric acid reactive substances level at 200 mg/kg, ip by malondialdehyde assay; type: functional, organism-based
Rattus norvegicus [20] = experiment: Neuroprotective activity in Sprague-Dawley rat model of spinal cord injury assessed as decrease in activated caspase-3 level at 200 mg/kg, ip in presence of 25 umol/kg of HO-1 inhibitor ZnPP; type: functional, organism-based
Rattus norvegicus [21] = experiment: Neuroprotective activity in Sprague-Dawley rat model of spinal cord injury assessed as decrease in TNF-alpha levels in spinal cord tissue at 200 mg/kg, ip by ELISA; type: functional, organism-based
Rattus norvegicus [22] = experiment: Neuroprotective activity in Sprague-Dawley rat model of spinal cord injury assessed as increase in superoxide dismutase activity at 200 mg/kg, ip in presence of Akt inhibitor LY294002; type: functional, organism-based
Rattus norvegicus [23] = experiment: Neuroprotective activity in Sprague-Dawley rat model of spinal cord injury assessed as increase in glutathione level at 200 mg/kg, ip by reduced glutathione assay in presence of 25 umol/kg of HO-1 inhibitor ZnPP; type: functional, organism-based
Rattus norvegicus [24] = experiment: Induction of Nrf2 binding to HO-1 promoter in Sprague-Dawley rat model of spinal cord injury at 200 mg/kg, ip by chromatin immunoprecipitation assay in presence of Akt inhibitor LY294002; type: functional, organism-based
Rattus norvegicus [25] = experiment: Neuroprotective activity in Sprague-Dawley rat model of spinal cord injury assessed as decrease in IL1-beta levels in spinal cord tissue at 200 mg/kg, ip by ELISA in presence of 25 umol/kg of HO-1 inhibitor ZnPP; type: functional, organism-based
Rattus norvegicus [26] = experiment: Neuroprotective activity in Sprague-Dawley rat model of spinal cord injury assessed as increase in glutathione level at 200 mg/kg, ip by reduced glutathione assay in presence of Akt inhibitor LY294002; type: functional, organism-based
Rattus norvegicus [27] = experiment: Neuroprotective activity in Sprague-Dawley rat model of spinal cord injury assessed as decrease in thiobarbituric acid reactive substances level at 200 mg/kg, ip by malondialdehyde assay in presence of Akt inhibitor LY294002; type: functional, organism-based
Rattus norvegicus [28] = experiment: Neuroprotective activity in Sprague-Dawley rat model of spinal cord injury assessed as increase in Akt phosphorylation at 200 mg/kg, ip by western blot analysis in presence of Akt inhibitor LY294002; type: functional, organism-based
Rattus norvegicus [29] = experiment: Neuroprotective activity in Sprague-Dawley rat model of spinal cord injury assessed as accumulation at G0/G1 phase at 200 mg/kg, ip by TUNEL staining-based flow cytometric analysis (reference value: 34.1 %); type: functional
Rattus norvegicus [30] = experiment: Neuroprotective activity in Sprague-Dawley rat model of spinal cord injury assessed as decrease in activated caspase-9 level at 200 mg/kg, ip in presence of 25 umol/kg of HO-1 inhibitor ZnPP; type: functional, organism-based
Rattus norvegicus [31] = experiment: Neuroprotective activity in Sprague-Dawley rat model of spinal cord injury assessed as decrease in Evans blue leakage in spinal cord tissue at 200 mg/kg, ip after 24 hrs in presence of Akt inhibitor LY294002; type: functional, organism-based
Rattus norvegicus [32] = experiment: Neuroprotective activity in Sprague-Dawley rat model of spinal cord injury assessed as decrease in Evans blue leakage in spinal cord tissue at 200 mg/kg, ip after 48 hrs in presence of Akt inhibitor LY294002; type: functional, organism-based
Rattus norvegicus [33] = experiment: Neuroprotective activity in Sprague-Dawley rat model of spinal cord injury assessed as accumulation at G0/G1 phase at 200 mg/kg, ip by TUNEL staining-based flow cytometric analysis in presence of 25 umol/kg of HO-1 inhibitor ZnPP (reference value: 34.1 %); type: functional
Rattus norvegicus [34] = experiment: Neuroprotective activity in Sprague-Dawley rat model of spinal cord injury assessed as decrease in thiobarbituric acid reactive substances level at 200 mg/kg, ip by malondialdehyde assay in presence of 25 umol/kg of HO-1 inhibitor ZnPP; type: functional, organism-based
Rattus norvegicus [35] = experiment: Neuroprotective activity in Sprague-Dawley rat model of spinal cord injury assessed as increase in Nrf2 mRNA expression at 200 mg/kg, ip by real time PCR method; type: functional, organism-based
Rattus norvegicus [36] = experiment: Neuroprotective activity in Sprague-Dawley rat model of spinal cord injury assessed as locomotor function recovery at 200 mg/kg, ip measured during 3 to 28 days; type: functional, organism-based
Rattus norvegicus [37] = experiment: Neuroprotective activity in Sprague-Dawley rat model of spinal cord injury assessed as decrease in Evans blue leakage in spinal cord tissue at 200 mg/kg, ip after 24 hrs; type: functional, organism-based
Rattus norvegicus [38] = experiment: Neuroprotective activity in Sprague-Dawley rat model of spinal cord injury assessed as decrease in IL-18 levels in spinal cord tissue at 200 mg/kg, ip by ELISA in presence of 25 umol/kg of HO-1 inhibitor ZnPP; type: functional, organism-based
Rattus norvegicus [39] = experiment: Neuroprotective activity in Sprague-Dawley rat model of spinal cord injury assessed as decrease in TNF-alpha levels in spinal cord tissue at 200 mg/kg, ip by ELISA in presence of 25 umol/kg of HO-1 inhibitor ZnPP; type: functional, organism-based
Rattus norvegicus [40] = experiment: Induction of Nrf2 binding to HO-1 promoter in Sprague-Dawley rat model of spinal cord injury at 200 mg/kg, ip by chromatin immunoprecipitation assay; type: functional, organism-based
Rattus norvegicus [41] = experiment: Neuroprotective activity in Sprague-Dawley rat model of spinal cord injury assessed as decrease in IL1-beta levels in spinal cord tissue at 200 mg/kg, ip by ELISA in presence of Akt inhibitor LY294002; type: functional, organism-based
Rattus norvegicus [42] = experiment: Neuroprotective activity in Sprague-Dawley rat model of spinal cord injury assessed as increase in Akt phosphorylation at 200 mg/kg, ip by western blot analysis in presence of 25 umol/kg of HO-1 inhibitor ZnPP; type: functional, organism-based
Rattus norvegicus [43] = experiment: Neuroprotective activity in Sprague-Dawley rat model of spinal cord injury assessed as increase in Nrf2 mRNA expression at 200 mg/kg, ip by real time PCR method in presence of 25 umol/kg of HO-1 inhibitor ZnPP; type: functional, organism-based
Rattus norvegicus [44] = experiment: Neuroprotective activity in Sprague-Dawley rat model of spinal cord injury assessed as decrease in IL-18 levels in spinal cord tissue at 200 mg/kg, ip by ELISA in presence of Akt inhibitor LY294002; type: functional, organism-based
Rattus norvegicus [45] = experiment: Neuroprotective activity in Sprague-Dawley rat model of spinal cord injury assessed as decrease in activated caspase-9 level at 200 mg/kg, ip; type: functional, organism-based
Rattus norvegicus [46] = experiment: Neuroprotective activity in Sprague-Dawley rat model of spinal cord injury assessed as increase in superoxide dismutase activity at 200 mg/kg, ip in presence of 25 umol/kg of HO-1 inhibitor ZnPP; type: functional, organism-based
Rattus norvegicus [47] = experiment: Neuroprotective activity in Sprague-Dawley rat model of spinal cord injury assessed as decrease in Evans blue leakage in spinal cord tissue at 200 mg/kg, ip after 48 hrs; type: functional, organism-based
Rattus norvegicus [48] = experiment: Neuroprotective activity in Sprague-Dawley rat model of spinal cord injury assessed as locomotor function recovery at 200 mg/kg, ip measured during 3 to 28 days in presence of 25 umol/kg of HO-1 inhibitor ZnPP; type: functional, organism-based

Cc1nc(C)c(C)nc1C [LIGUSTRAZINE]
Activity (Rattus norvegicus [1]): Active | Activity (Rattus norvegicus [2]): inactive | Activity (Rattus norvegicus [3]): Active | Activity (Rattus norvegicus [4]): inactive | Activity (Rattus norvegicus [5]): Active | Activity (Rattus norvegicus [6]): Active | Activity (Rattus norvegicus [7]): 16.2% | Activity (Rattus norvegicus [8]): inactive | Activity (Rattus norvegicus [9]): inactive | Activity (Rattus norvegicus [10]): inactive | Activity (Rattus norvegicus [11]): Active | Activity (Rattus norvegicus [12]): inactive | Activity (Rattus norvegicus [13]): Active | Activity (Rattus norvegicus [14]): inactive | Activity (Rattus norvegicus [15]): inactive | Activity (Rattus norvegicus [16]): inactive | Activity (Rattus norvegicus [17]): Active | Activity (Rattus norvegicus [18]): Active | Activity (Rattus norvegicus [19]): Active | Activity (Rattus norvegicus [20]): inactive | Activity (Rattus norvegicus [21]): Active | Activity (Rattus norvegicus [22]): inactive | Activity (Rattus norvegicus [23]): inactive | Activity (Rattus norvegicus [24]): inactive | Activity (Rattus norvegicus [25]): inactive | Activity (Rattus norvegicus [26]): inactive | Activity (Rattus norvegicus [27]): inactive | Activity (Rattus norvegicus [28]): Active | Activity (Rattus norvegicus [29]): 8% | Activity (Rattus norvegicus [30]): inactive | Activity (Rattus norvegicus [31]): inactive | Activity (Rattus norvegicus [32]): inactive | Activity (Rattus norvegicus [33]): 15% | Activity (Rattus norvegicus [34]): inactive | Activity (Rattus norvegicus [35]): Active | Activity (Rattus norvegicus [36]): Active | Activity (Rattus norvegicus [37]): Active | Activity (Rattus norvegicus [38]): inactive | Activity (Rattus norvegicus [39]): inactive | Activity (Rattus norvegicus [40]): Active | Activity (Rattus norvegicus [41]): inactive | Activity (Rattus norvegicus [42]): Active | Activity (Rattus norvegicus [43]): Active | Activity (Rattus norvegicus [44]): inactive | Activity (Rattus norvegicus [45]): Active | Activity (Rattus norvegicus [46]): inactive | Activity (Rattus norvegicus [47]): Active | Activity (Rattus norvegicus [48]): inactive
